The values that follow come from publication PMC10780244, “Antileishmanial Effect of 1,5- and 1,8-Substituted Fused Naphthyridines” (Molecules, 2023).

In the data set the test system is murine intestinal organoids. As to the kind of experiment: Drug tolerance in murine intestinal organoids (alamarBlue). The format is cell-based, mouse. Particulars: 50 µM, 72 h exposure. The method, then:
Amastigotes obtained from mouse bone marrow cells were used to perform a first screening with the complete series of fused 1,5- and 1,8-naphthyridines. […] The toxicity of these selected compounds was assessed in non-infected splenic cells and the cytotoxic concentration (CC50) value obtained was used to calculate the selective index (SI). The oral tolerability of these same compounds was tested by calculating the viability of murine intestinal organoids exposed to two concentrations (50 and 25 µM).
Preparation and maintenance of murine intestinal organoids cultures were performed following the protocols published by Stemcell Technologies™ (https://www.stemcell.com/intestinal-epithelial-organoid-culture-with-intesticult-organoid-growth-medium-mouse-lp.html#protocols, accessed on 14 December 2023) with some modifications. Briefly, a section of small intestine from a Balb/c mouse was extracted and washed with ice-cold PBS. This section was cut into pieces around 2 mm each, washed 15–20 times with ice-cold PBS and incubated with Gentle Cell Dissociation Reagent (Stemcell Technologies™, Vancouver, BC, Canada) for 20 min. Then, the pieces were resuspended in ice-cold PBS with 0.1% BSA and left to settle at the bottom of the tube. The supernatant was collected and filtered through a 70 µm strainer. This process was repeated a total of four times obtaining different fractions. Cells from these fractions were centrifugated at 300× g for 5 min at 4 °C, washed with ice-cold PBS + 0.1% BSA and resuspended on 10 mL of ice-cold DMEM/F12 supplemented with glutamine and HEPES 15 mM (Gibco, Thermo Fisher Scientific, Waltham, MA, USA). After the evaluation under a microscope, the fraction with the highest crypt number but the lowest detritus presence was chosen. This fraction was centrifugated at 200× g for 5 min at 4 °C and the pellet was resuspended in a 1:1 mix of Geltrex GFR LDEV-free (Gibco, Fisher Scientific, Waltham, MA, USA) and IntestiCult™ Organoid Grow Medium Mouse (Stemcell Technologies™, Vancouver, BC, Canada). Fifty microliters of the suspension were pipetted into the middle of each well of a pre-heated 24-well plate and incubated at 37 °C for 10 min to allow polymerization of the matrix. In the end, 500 µL of IntestiCult™ Organoid Grow Medium was added to each well. The plates were incubated at 37 °C and 5% CO2, changing the culture medium every 48 h. Organoids were split 1 into 4 plates after 7 days.
Drug tolerance assays using murine intestinal organoids were performed in 384-well plates, following a protocol based on previous works and introducing several modifications. Briefly, organoids were prepared discarding the culture medium and adding 800 µL of Gentle Cell Dissociation Reagent (Stemcell Technologies™, Vancouver, BC, Canada) directly on top of matrix domes. After 1 min incubation at room temperature, the matrix was broken by pipetting, and the content of the wells was retrieved. The suspension was incubated at room temperature for 10 min on a rocking platform at 20 rpm, and centrifugated at 300× g for 5 min at 4 °C. The pellet was resuspended in 10 mL of ice-cold DMEM/F12 (Gibco, Fisher Scientific, Waltham, MA, USA) supplemented with glutamine and HEPES 15 mM and centrifugated again at 200× g for 5 min at 4 °C. Cells were resuspended in a 1:1 mix of Geltrex GFR LDEV-free and IntestiCult™ Organoid Grow Medium Mouse (Stemcell Technologies™, Vancouver, Canada). The final volume of the mix was calculated to achieve a 4-fold dilution in the final plate compared to the original plate. The mix was distributed in a 384-well plate (8 µL/well) which was incubated at 37 °C for 10 min. After that, 32 µL of IntestiCult™ Organoid Grow Medium Mouse (Stemcell Technologies™, Vancouver, Canada) were added to each well. The plate was incubated at 37 °C and 5% CO2 and after 4 days, mature organoids were exposed to drugs, alone or combined. For positive control, hydrogen peroxide at the final concentration of 0.15 % v/v was used. […]
In general terms: Resazurin is reduced to fluorescent resorufin, in cell work by metabolically active cells.

Bounds are passed on as bounds.

In the case of `COc1ccc2c(n1)[C@@H](c1ccccc1)C1CN(S(=O)(=O)c3ccc(C)cc3)c3ccccc3C1N2` (some centres unmarked) [Compound 8c], the “Intestinal Organoids 50 µM (%Viability)” value is recorded as greater than 100%.
Take `Fc1ccc2c(c1)C1Nc3ncccc3[C@@H](c3ccccc3)C1CO2` (some centres unmarked) [Compound 10b]: the “Intestinal Organoids 50 µM (%Viability)” value stood at 90 ± 22%.
